# Experimental data taken from patent publication EP1079826B1, “USE OF INDIGOID BISINDOLE DERIVATIVES FOR THE MANUFACTURE OF A MEDICAMENT TO INHIBIT CYCLIN DEPENDENT KINASES” (CNRS, Centre National de la Recherche Scientifique, priority 1998, dated 1999).
# Like-named read-outs stand apart in the source and are kept apart here.
# Legend:
# [1] = target: p34^cdc2/cyclinB; test: p34cdc2/cyclin B kinase assay (histone H1 phosphorylation, [γ-32P] ATP); assay type: biochemical, starfish (Marthasterias glacialis)
# Experimental: J. Biochem., 243, (1997), 527-536). […] After 10 min. incubation at 30°C, 25 μl aliquots of supernatant were spotted onto 2.5 x 3 cm pieces of Whatman P81 phosphocellulose paper, and after 20 sec., the filters were washed five times (for at least 5 min. each time) in a solution of 10 ml phosphoric acid/liter of water. The wet filters were transferred into 6 ml plastic scintillation vials, 5 ml ACS (Amersham) scintillation fluid was added and the radioactivity measured in a Packard scintillation counter.
# [2] = tested on: cdc25; test: cdc25 inhibition (specificity panel); assay type: biochemical; settings: Table 3
# [3] = target: CDK5/ p35 (Homo sapiens, UniProt Q00535); test: kinase inhibition selectivity, CDK5/p35; assay type: biochemical
# [4] = tested on: CDK1/cyclin B; test: histone H1 phosphorylation as a measure for CDK1/cyclin B activity in cell culture; assay type: cell-based, human; settings: after 24 h incubation of MCF-7 mammary carcinoma cells
# Source text: An inhibition of p34^cdc2-kinase by indigoid bisindole derivatives is not described in the prior art.
# [5] = tested on: MCF-7 mammary carcinoma cells; test: cell cycle arrest in cell culture; assay type: cell-based, human
# Experimental: (§1) An inhibition of p34^cdc2-kinase by indigoid bisindole derivatives is not described in the prior art. […] In concentrations ≥ 5 µM, an additional arrest at G2/M-phase of the cell cycle became apparent.
# [6] = tested on: MCF-7 mammary carcinoma cells; test: growth inhibition in cell culture; assay type: cell-based; settings: Homo sapiens, MCF7, 72 h; after 3 days incubation; 50% growth inhibition as compared to vehicle control
# Experimental: as §1
# [7] = tested on: MCF-7 mammary carcinoma cells; test: induction of apoptotic cell death in cell culture; assay type: cell-based, human
# Experimental: as §1
# [8] = target: CDK2/ cyclin A (Homo sapiens, UniProt P24941); test: biochemical
# [9] = target: CDK2/ cyclin E (Homo sapiens, UniProt P24941); test: biochemical
# [10] = tested on: PKG; settings: Table 1, known inhibitors; cited from earlier work
# [11] = tested on: chronic myelogenous leukemia; settings: cases of chronic myelogenous leukemia; cited from earlier work
# [12] = tested on: CDK1; settings: Table 1, known inhibitors; roscovitine value for racemic mixture; cited from earlier work
# [13] = tested on: MAPK; settings: Table 1, known inhibitors; cited from earlier work
# [14] = tested on: PKC; settings: Table 1, known inhibitors; cited from earlier work
# [15] = target: epidermal growth factor receptor tyrosine kinase (Homo sapiens, UniProt P00533); settings: Table 1, known inhibitors; read-out: IC50 Tyrosine-kinase (EGF-R); cited from earlier work
# [16] = tested on: PKC; test: PKC inhibition (specificity panel); assay type: biochemical; settings: Ca2+-dependent protein kinase, Table 3
# [17] = compared with indirubine; cited from earlier work
# [18] = target: CDK4/ cyclin D1 (Homo sapiens, UniProt P11802); test: kinase inhibition selectivity, CDK4/cyclin D1; assay type: biochemical
# [19] = calculated from dose response curves, Table 4, read-out: IC50 CDK1/ cyclin B
# [20] = cdc2 kinase, Table 3, read-out: IC50 cdc2
# [21] = calculated from dose response curves, Table 4, read-out: IC50 CDK5/ p35
# [22] = cells arrested by serum deprivation, treatment for 24 h in serum containing medium
# Chain of CDK5/ p35 (Q00535 whole entry, species assumed): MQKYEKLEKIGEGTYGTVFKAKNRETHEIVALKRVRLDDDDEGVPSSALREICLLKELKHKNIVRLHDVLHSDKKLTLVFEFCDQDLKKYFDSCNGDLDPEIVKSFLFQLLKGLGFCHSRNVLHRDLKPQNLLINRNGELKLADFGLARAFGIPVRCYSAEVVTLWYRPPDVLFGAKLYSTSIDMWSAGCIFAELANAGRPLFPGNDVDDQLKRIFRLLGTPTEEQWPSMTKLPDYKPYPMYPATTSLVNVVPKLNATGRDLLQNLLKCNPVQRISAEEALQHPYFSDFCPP
# Chain of CDK5/ p35 (Q15078 whole entry partner, species assumed): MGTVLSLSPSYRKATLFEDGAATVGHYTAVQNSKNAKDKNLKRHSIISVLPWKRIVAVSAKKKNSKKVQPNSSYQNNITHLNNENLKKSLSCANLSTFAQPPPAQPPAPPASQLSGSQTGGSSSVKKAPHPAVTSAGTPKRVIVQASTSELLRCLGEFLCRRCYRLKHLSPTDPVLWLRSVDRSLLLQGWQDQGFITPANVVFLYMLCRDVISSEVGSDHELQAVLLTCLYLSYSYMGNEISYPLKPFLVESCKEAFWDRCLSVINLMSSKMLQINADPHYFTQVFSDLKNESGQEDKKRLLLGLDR
# Chain of CDK4/ cyclin D1 (P11802 whole entry, species assumed): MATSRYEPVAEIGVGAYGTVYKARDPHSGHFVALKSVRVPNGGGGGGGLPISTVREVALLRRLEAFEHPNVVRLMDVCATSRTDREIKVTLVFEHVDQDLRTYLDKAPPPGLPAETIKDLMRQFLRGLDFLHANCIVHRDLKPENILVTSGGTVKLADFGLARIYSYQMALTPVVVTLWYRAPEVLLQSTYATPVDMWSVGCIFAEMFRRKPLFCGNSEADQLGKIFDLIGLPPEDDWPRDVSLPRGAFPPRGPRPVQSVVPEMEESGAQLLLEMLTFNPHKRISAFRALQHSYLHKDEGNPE
# Chain of CDK4/ cyclin D1 (P24385 whole entry partner, species assumed): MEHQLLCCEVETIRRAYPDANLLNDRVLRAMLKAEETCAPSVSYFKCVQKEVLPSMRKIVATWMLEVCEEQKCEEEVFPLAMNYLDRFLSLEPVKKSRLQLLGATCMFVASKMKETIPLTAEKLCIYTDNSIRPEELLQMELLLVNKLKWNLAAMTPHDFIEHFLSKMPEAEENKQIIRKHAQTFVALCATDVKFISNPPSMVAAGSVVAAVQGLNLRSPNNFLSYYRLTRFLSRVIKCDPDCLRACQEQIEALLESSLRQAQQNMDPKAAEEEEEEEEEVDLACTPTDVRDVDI
# Chain of epidermal growth factor receptor tyrosine kinase (P00533 25-1210): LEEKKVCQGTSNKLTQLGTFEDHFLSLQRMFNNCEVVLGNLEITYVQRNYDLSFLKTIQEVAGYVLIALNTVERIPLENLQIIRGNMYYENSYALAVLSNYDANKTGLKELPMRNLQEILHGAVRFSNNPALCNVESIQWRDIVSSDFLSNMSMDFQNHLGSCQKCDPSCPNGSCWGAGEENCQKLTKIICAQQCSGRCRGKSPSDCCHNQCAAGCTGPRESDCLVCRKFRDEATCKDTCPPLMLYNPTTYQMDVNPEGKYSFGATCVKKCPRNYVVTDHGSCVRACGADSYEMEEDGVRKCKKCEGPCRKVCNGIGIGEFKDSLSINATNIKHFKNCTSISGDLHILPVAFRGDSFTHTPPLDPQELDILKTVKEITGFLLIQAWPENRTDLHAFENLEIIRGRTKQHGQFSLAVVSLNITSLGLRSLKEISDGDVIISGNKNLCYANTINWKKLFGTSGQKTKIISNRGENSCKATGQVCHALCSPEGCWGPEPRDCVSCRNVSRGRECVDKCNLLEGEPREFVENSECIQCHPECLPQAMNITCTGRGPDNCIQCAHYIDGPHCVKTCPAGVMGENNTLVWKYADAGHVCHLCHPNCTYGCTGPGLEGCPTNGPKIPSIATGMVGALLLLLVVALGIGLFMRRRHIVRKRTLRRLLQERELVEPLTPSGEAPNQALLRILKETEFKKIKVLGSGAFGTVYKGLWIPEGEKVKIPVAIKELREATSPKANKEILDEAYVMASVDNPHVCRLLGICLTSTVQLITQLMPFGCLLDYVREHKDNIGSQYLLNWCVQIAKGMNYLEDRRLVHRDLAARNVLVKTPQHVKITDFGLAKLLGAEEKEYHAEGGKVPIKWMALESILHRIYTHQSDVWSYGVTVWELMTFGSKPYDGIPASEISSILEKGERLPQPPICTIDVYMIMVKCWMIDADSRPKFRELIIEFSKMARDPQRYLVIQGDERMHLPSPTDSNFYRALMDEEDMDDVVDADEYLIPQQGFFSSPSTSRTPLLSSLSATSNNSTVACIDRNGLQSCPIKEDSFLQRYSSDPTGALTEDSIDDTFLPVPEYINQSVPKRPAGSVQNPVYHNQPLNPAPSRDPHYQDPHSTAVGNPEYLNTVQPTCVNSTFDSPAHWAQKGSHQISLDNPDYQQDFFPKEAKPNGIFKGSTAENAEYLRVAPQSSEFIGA
structure (smiles),measurement,setting,value
"O=C1Nc2ccc(S(=O)(=O)O)cc2C1=C1Nc2ccccc2C1=O [Example 11, Indirubine-5-sulfonic acid]",IC50,[1]; [19],0.055 µM
same,IC50,[1]; [20],0.055 µM
same,IC50,[2],110 µM
same,IC50,[3]; [21],0.065 µM
"O=C1Nc2ccccc2/C1=C1\C(=O)Nc2ccccc21 [Example 12, Isoindigo]",IC50,[1]; read-out: IC50-value for the p34^cdc2/cyclinB complex,80 µM
"O=C1Nc2ccc(Br)cc2/C1=C1/Nc2ccc(Br)cc2C1=O [Example 9, 5,5'-Dibromoindirubine]",IC50,[1]; [20],7 µM
"O=C1Nc2ccccc2C1=C1Nc2ccccc2C1=NO [Example 10, Indirubine-3'-oxime]",content of cyclin B complex,[4],significantly reduced
same,histone H1 phosphorylation as a measure for CDK1/cyclin B activity,[4],inhibit histone H1 phosphorylation
same,arrest in G1-phase of the cell cycle,[5]; [22],low micromolar concentrations
same,concentration at which additional arrest at G2/M-phase of the cell cycle became apparent,[5]; [22],≥ 5 µM
same,concentration giving significant increase of G2/M arrested cells,"[5]; cells arrested in G2/M by Nocodazole treatment, after release of the block",≥ 5 µM
same,IC50,[6],3.3 ± 0.7 µM
same,apoptotic cell death,[7],induction of apoptotic cell death was observed
same,IC50,[8],0.44 µM
same,IC50,[9],0.25 µM
CN1CC[C@H](c2c(O)cc(O)c3c(=O)cc(-c4ccccc4Cl)oc23)[C@H](O)C1 [Flavopiridol],IC50,[10],6 µM
"CN1C(=O)/C(=C2/C(=O)Nc3ccccc32)c2ccccc21 [meisoindigo, N-Methyl-isoindigo]",complete and partial remission rate,[11],81.3%
same,total response rate,[11],90.1%
CN[C@@H]1C[C@H]2O[C@@](C)([C@@H]1OC)n1c3ccccc3c3c4c(c5c6ccccc6n2c5c31)C(=O)NC4 [Staurosporine],IC50,[10],0.009 µM
"Cc1ccc2c(c1)C(=C1Nc3ccccc3C1=O)C(=O)N2 [Example 6, 5-Methylindirubine]",IC50,[1]; [20],0.8 µM
same,IC50,[2],60 µM
"O=C1Nc2ccc([N+](=O)[O-])cc2/C1=C1/Nc2ccccc2C1=O [Example 7, 5-Nitroindirubine]",IC50,[1]; [20],2.2 µM
same,IC50,[2],60 µM
"COC(=O)C1(Cc2ccc(O)c(CC=C(C)C)c2)OC(=O)C(O)=C1c1ccc(O)cc1 (stereo not drawn) [Butyro-lactone-I, Butyrolactone-I]",IC50,[12],[…]
same,IC50,[13],94 µM
same,IC50,[14],160 µM
same,IC50,[15],> 590 µM
"O=C1Nc2ccc(F)cc2/C1=C1/Nc2ccccc2C1=O [Example 5, 5-Fluoroindirubine]",IC50,[1]; [20],2 µM
same,IC50,[2],70 µM
"O=C1Nc2ccc(I)cc2/C1=C1/Nc2ccccc2C1=O [Example 2, 5-Iodoindirubine]",IC50,[1]; [20],0.3 µM
same,IC50,[2],130 µM
same,IC50 PKC,[16],no Effect
same,antitumor activity,[17],superior to that of indirubine
CN[C@@H]1C[C@H]2O[C@@](C)([C@@H]1OC)n1c3ccccc3c3c4c(c5c6ccccc6n2c5c31)C(=O)N[C@@H]4O [UCN-01],IC50,[12],0.031 µM
"Cc1c2ccncc2c(C)c2c1[nH]c1ccc(O)cc12 [9-Hydroxy-ellipticine, 9-Hydroxyellipticin]",IC50,[12],~1 µM
"O=C1Nc2ccc(Cl)cc2/C1=C1/Nc2ccccc2C1=O [Example 4, 5-Chloroindirubine]",IC50,[1]; [19],0.4 µM
same,IC50,[1]; [20],0.4 µM
same,IC50,[2],55 µM
same,IC50,[18],6.5 µM
same,IC50,[3],0.8 µM
same,IC50,[8],0.75 µM
same,IC50,[9],0.55 µM
O=C1/C(=C2\Nc3ccccc3C2=O)Nc2ccccc21 [indigo],IC50,[1]; [19],> 1000 µM
same,IC50,"[18]; calculated from dose response curves, Table 4, read-out: IC50 CDK4/ cyclin D1",> 100 µM
same,IC50,[3]; [21],> 100 µM
same,IC50,[8],70 µM
same,IC50,[9],> 1000 µM
"O=C1Nc2ccccc2/C1=C1/Nc2ccc(Br)cc2C1=O [Example 8, 5'-Bromoindirubine]",IC50,[1]; [20],6.5 µM
"O=C1Nc2ccc(Br)cc2/C1=C1/Nc2ccccc2C1=O [Example 3, 5-Bromoindirubine]",IC50,[1]; [20],0.35 µM
same,IC50,[2],32 µM
